Reference: paper PMC4840416, “Constructing and Validating High-Performance MIEC-SVM Models in Virtual Screening for Kinases: A Better Way for Actives Discovery” (Scientific Reports, 2016)

Target: T1, recombinant human ALK protein (Homo sapiens, UniProt Q9UM73)
T1 construct: purchased Life Technologies Inc. PV3867
Test: LanthaScreen TR-FRET in vitro inhibitory activity assay of ALK
Format: biochemical
Conditions: compound at 2ug/ml
Experimental: All reagents and anhydrous solvents were obtained from commercial sources and used as received. The positive control inhibitors of ALK, crizotinib and ceritinib, were purchased from Bangshunda Technology and Selleck Chemicals, respectively. The compounds were dissolved in 100% dimethyl sulfoxide (DMSO) as a 10 mM stock solution. The final DMSO concentration in each reaction was less than 1%. Purified recombinant human ALK protein (Catalog number: PV3867) as well as reagents for TR-FRET assay, including Lantha Screen™ Tb-PY20 (Catalog number: PV3552), Fluorescein-Poly GT (Catalog number: PV3610), ATP (Catalog number: PV3227), Kinase Quench Buffer (Catalog number: P2832), Kinase Buffer (Catalog number: PV3189), and Antibody Dilution Buffer (Catalog number: PV3574), were all obtained from Life Technologies Inc.
Lantha Screen™ kinase assay based on TR-FRET technology was used to measure the inhibitory activity of the screened compounds. All the assays were carried out in 384-well plate format. The 4 × test compounds were firstly prepared before the enzyme reaction starts. The 4 × recombinant human ALK protein and 2 × Substrate/ATP mixture were separately prepared in 50 mM HEPES (pH = 7.5), 0.01% BRIJ-35, 10 mM MgCl2, 4 mM MnCl2, 1 mM EGTA, and 2 mM DTT. The final 10 μL kinase reaction consists of 5 μL 1 × Substrate/ATP mixture (0.2 μM substrate and 5 μM ATP), 2.5 μL ALK (5 ng/ml ALK protein), and 2.5 μL 1 × test compounds with desired concentration. The assay plate was shook on a plate shaker for 30 seconds to mix the reactions thoroughly. After 1 hour kinase reaction incubation at room temperature (20 ~ 25 °C), 10 μL of pre-prepared 20 mM EDTA and 4 nM Tb-labeled antibody solution was then added to terminate the kinase reactions and to initiate antibody binding, and the assay plate was incubated for another 1 hour at room temperature. Then, the assay plate was placed into a fluorescence plate reader (BioTek Synergy™ 4) to measure both fluoresce in and terbium emission signals (excitation: 340 nm; emission: 520 and 495 nm, respectively) with 100 μs delay time and 200 μs integration time. To determine the IC50 values, the resulted inhibitory activity calculated from TR-FRET emission ratio (i.e. fluoresce in emission intensity/terbium emission intensity) was plotted against the concentration of inhibitor, and the data was fitted to a dose-response curve with a variable slop.

T1 sequence (Q9UM73 1058-1620 limits assumed): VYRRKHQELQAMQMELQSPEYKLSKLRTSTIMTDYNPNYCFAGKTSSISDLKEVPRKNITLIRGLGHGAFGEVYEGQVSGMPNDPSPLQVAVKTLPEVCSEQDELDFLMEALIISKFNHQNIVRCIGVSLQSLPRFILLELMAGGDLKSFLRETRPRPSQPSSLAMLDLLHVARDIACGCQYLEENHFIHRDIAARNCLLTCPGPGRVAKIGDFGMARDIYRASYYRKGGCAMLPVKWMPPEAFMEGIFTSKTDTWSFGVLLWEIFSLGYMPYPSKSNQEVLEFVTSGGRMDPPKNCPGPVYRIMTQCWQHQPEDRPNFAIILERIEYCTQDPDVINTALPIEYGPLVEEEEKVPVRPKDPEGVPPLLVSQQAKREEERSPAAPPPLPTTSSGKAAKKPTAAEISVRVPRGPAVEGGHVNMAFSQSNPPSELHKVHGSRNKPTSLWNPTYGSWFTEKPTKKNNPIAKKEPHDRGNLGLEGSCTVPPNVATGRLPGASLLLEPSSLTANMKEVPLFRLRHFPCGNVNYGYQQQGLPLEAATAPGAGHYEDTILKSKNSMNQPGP

Row | SMILES | Averaged Enzymatic Inhibition @ 2ug/ml (%)
1 | Cc1ccc(OS(=O)(=O)c2cccc(C(=O)Nc3ccccc3)c2)c(-n2nc3ccccc3n2)c1 [AG-690/11836103] | -16.78%
2 | Cc1ccc(-c2cc(-c3c(-c4ccccc4)c4cc(Cl)ccc4[nH]c3=O)nc3ccccc23)cc1 [AG-690/12134081] | 10.575%
3 | O=C1c2ccccc2-c2c1c(-c1cccc(Oc3ccccc3)c1)nc1ccc3ccccc3c21 [AG-690/12869023] | 12.235%
4 | c1ccc(-c2oc3ncn4nc(CSc5nc6ccccc6s5)nc4c3c2-c2ccccc2)cc1 [AG-690/12869680] | -1.245%
5 | Cc1ccccc1-c1nnc(-c2ccc(-c3ccccc3)cc2)n1-c1ccccc1 [AG-690/33068064] | 4.62%
6 | c1ccc2c(c1)Oc1ccccc1C2=C1c2ccccc2Oc2ccccc21 [AG-690/36541063] | 11.335%
7 | CC1=C(C(=O)Nc2ccccc2)C(c2ccccc2)n2c(s/c(=C/C=C\c3ccccc3)c2=O)=N1 (stereo not shown) [AG-690/37079179] | 15.845%
8 | O=C1c2ccccc2-c2onc3c(Sc4ccccc4)cc(Sc4ccccc4)c1c23 [AG-690/40097114] | 1.725%
9 | CC(C)(C)c1ccc(Oc2cc(Nc3ccccc3)c3c4c(onc24)-c2ccccc2C3=O)cc1 [AG-690/40097127] | 11.435%
10 | Cc1ccc(-c2cc(-c3ccccc3Cl)c3c(N)c(-c4nnc(-c5ccccc5)o4)sc3n2)cc1 [AG-690/40749514] | -4.41%
11 | COc1ccc(-c2cc(C(=O)Nc3ccccc3-c3ccccc3)c3ccccc3n2)cc1 [AG-690/40749597] | 2.49%
12 | CCOC(=O)c1c(/N=C(/Nc2ccccc2-c2ccccc2)c2ccccc2)sc2c1CCCC2 [AG-690/40750112] | 16.665%
13 | Cc1ccc(S(=O)(=O)N(Cc2n[nH]c(=S)n2-c2ccccc2)c2cccc(Cl)c2)cc1 [AG-690/40751357] | 8.965%
14 | CCCCC1CCC(c2nc3c4c(c(Nc5cccc(C)c5)ccc4n2)C(=O)c2ccccc2-3)CC1 (stereo not shown) [AH-034/08463011] | 1.2%
15 | CCOc1cc(/C=N\NC(=O)CCc2ccccc2)ccc1OC(=O)/C=C/c1ccccc1 [AH-487/37011044] | -17.16%
16 | Cc1cccc(N(CC(=O)N/N=C/c2cccc(Br)c2)S(=O)(=O)c2ccccc2)c1C [AH-487/40936079] | 0.44%
17 | O=C1c2cccc3c2C2=S(Sc4ccc(NC5CCCCC5)c1c42)N3C1CCCCC1 (stereo not shown) [AH-541/12737056] | 12.4%
18 | O=C(Nc1ccccc1)c1c(-c2ccccc2)c(C(=O)c2ccc([N+](=O)[O-])cc2)n2ccccc12 [AI-204/31728031] | 3.565%
19 | Cc1nc(Nc2nc(CSc3nnnn3-c3ccccc3)cc(=O)[nH]2)nc2ccccc12 [AJ-292/42284747] | 1.31%
20 | Cc1ccc(C(=O)CC2(O)C(=O)N(CCc3ccccc3)c3ccccc32)cc1 (stereo not shown) [AK-778/40897568] | 18.54%
21 | O=C(CC1(O)C(=O)N(CCc2ccccc2)c2ccccc21)c1ccc2c(c1)OCCO2 (stereo not shown) [AK-778/41314821] | -1.935%
22 | C(=C(\Cn1nc(-c2ccccc2)c(-c2ccccc2)c1-c1ccccc1)c1ccccc1)/c1ccccc1 [AK-830/13217169] | 2.08%
23 | Cc1ccc(C(=O)COC(=O)c2ccc3nc4c5ccccc5c5ccccc5c4nc3c2)cc1C [AK-918/13399094] | 8.005%
24 | O=C(COC(=O)c1c(-c2ccccc2)c(-c2ccccc2)nc2ccccc12)c1ccccc1 [AK-918/15391011] | -13.24%
25 | C(=N\Nc1nnc(-c2ccccc2)c(-c2ccccc2)n1)/c1c2ccccc2cc2ccccc12 [AK-968/11200121] | -0.805%
26 | Cc1cccc(N=c2sc(C3=c4cc(C)ccc4=NC3=O)c(O)n2-c2cccc(C)c2)c1 [AK-968/11780042] | -8.175%
27 | Cc1ccc(-c2cc(C(=O)N3CCN(C/C=C/c4ccccc4)CC3)c3ccccc3n2)cc1C [AK-968/11842315] | 10.91%
28 | COc1ccccc1C(=O)Nc1ccc2oc(-c3cccc4c(Br)cccc34)nc2c1 [AK-968/12097078] | -2.025%

Row | SMILES | Averaged Enzymatic Inhibition @ 2ug/ml (%)
29 | CCC1CCc2c(sc(NC(=O)c3c(-c4c(Cl)cccc4Cl)noc3C)c2C(N)=O)C1 (stereo not shown) [AK-968/12265292] | -4.47%
30 | Cc1onc(-c2ccccc2)c1C(=O)Nc1cccc2c1C(=O)c1ccccc1C2=O [AK-968/13025057] | 30.35%
31 | CCCOc1ccc(-c2cc(C(=O)N3CCC(Cc4ccccc4)CC3)c3ccccc3n2)cc1 [AK-968/15360205] | -17.96%
32 | O=C1OC(c2ccccc2Cl)=N/C1=C\c1ccc(OCc2ccccc2)cc1OCc1ccccc1 [AK-968/37055166] | -8.735%
33 | CCC(Oc1ccc2ccccc2c1Br)C(=O)NNC(=O)c1cc2cc(Br)ccc2oc1=O (stereo not shown) [AK-968/37077046] | 3.24%
34 | Cc1ccc(-c2csc(N3N=C(c4ccc5c(c4)CCCC5)CC3c3ccccc3)n2)cc1 (stereo not shown) [AL-182/40744490] | -4.165%
35 | Nc1nc(Nc2cccc(Cl)c2)sc1C(=O)C12CC3CC(CC(C3)C1)C2 [AM-807/12426163] | 5.915%
36 | CN1CCc2nc3sc(C(=O)c4ccc(-c5ccccc5)cc4)c(N)c3c(-c3cccs3)c2C1 [AM-807/14959628] | -12.705%
37 | CCOc1cc(/C=C2/SC(=O)N(Cc3c(F)cccc3Cl)C2=O)ccc1O [AM-879/41780072] | 12.385%
38 | Cc1cc(C)c2oc(-c3ccc(C)c(NC(=O)C(c4ccccc4)c4ccccc4)c3)nc2c1 [AN-465/13859038] | 40.815%
39 | CCn1cc(/C=C2\C(=O)NC(=S)N(c3cccc4ccccc34)C2=O)c2ccccc21 [AN-465/14954307] | 46.45%
40 | Cc1cc(C)c2oc(-c3cccc(NC(=O)COc4cc(Cl)c(Cl)cc4Cl)c3C)nc2c1 [AN-465/40934866] | 2.22%
41 | N#Cc1c(N)nc2sc(C(=O)Nc3ccccc3)c(N)c2c1-c1cccs1 [AN-512/12594125] | 10.48%
42 | C/C(=N\Nc1nc(-c2ccc(F)cc2)cs1)c1nonc1C [AN-648/40740338] | 23.375%
43 | Cc1ccnc(NC(=O)c2ccc(Cl)c(NC(=O)c3ccc(-c4ccccc4)cc3)c2)c1 [AN-652/43161615] | 17.89%
44 | c1ccc(CSc2nnc3c(n2)OC(c2c4ccccc4cc4ccccc24)Nc2ccccc2-3)cc1 (stereo not shown) [AN-655/13300050] | 23.865%
45 | CCc1ccc2[nH]c3nc(N/N=C/c4ccc(-c5cccc(C(F)(F)F)c5)o4)nnc3c2c1 [AN-655/15262058] | 11.82%
46 | Cc1ccc(-n2cnc3c(sc4nnc(-c5ccccc5)c(-c5ccccc5)c43)c2=O)cc1 [AN-789/13819006] | 1.595%
47 | O=C(COc1ccccc1-c1cnn(-c2ccccc2)c1)N/N=C/c1cc2ccccc2nc1Cl [AN-829/42007480] | 2.755%
48 | N#Cc1c(N)nc2sc(C(=O)Nc3ccc(Cl)cc3)c(N)c2c1-c1cccs1 [AN-848/43256373] | -5%
49 | O=C1c2ccc(-c3nc4ccccc4s3)cc2C(=O)N1c1cccc(-c2nc3ccccc3s2)c1 [AN-979/41713847] | 5.385%
50 | O=C(Nc1cccc(S(=O)(=O)N2CCN(C(=O)c3ccccc3)CC2)c1)C1CCCCC1 [AO-080/43378230] | -9.72%
51 | O=C(Cn1cc(/C=C2\SC(=NC3CCCC3)N(C3CCCC3)C2=O)c2ccccc21)N1CCOCC1 [AO-081/15386972] | -1.4%
52 | O=C(Nc1ccc(Cl)cc1)C1CC(=O)N(c2ccc(Oc3ccccc3)cc2)C1 (stereo not shown) [AO-081/15572353] | -3.26%
53 | COc1cccc(-c2cc3c(c(N)c2C#N)c(=O)oc2ccccc23)c1 [AO-476/43362608] | 9.055%
54 | O=C(c1cccc(S(=O)(=O)NC2CCCCCC2)c1)c1cccc(S(=O)(=O)NC2CCCCCC2)c1 [AP-866/40876225] | 9.84%
55 | N#CC1=C(N)Oc2n[nH]c(-c3ccccc3)c2C1c1cccc(OCc2cccc3ccccc23)c1 (stereo not shown) [AP-964/41446891] | 13.75%
